Data from PubChem BioAssay AID2116 (The Scripps Research Institute Molecular Screening Center, 2009).

Target: Mucolipin-3 (Homo sapiens) (UniProt Q8TDD5)
Assay: TRPML3 and TRPML2 channel agonists, cell-based, patch clamp, Fura-2 profiling panel (AID 2116)
Details: HEK293 cells expressing TRPML3-YFP, TRPML3 Dose Response

Chain of Mucolipin-3 (Homo sapiens) (Q8TDD5 whole entry, looked up): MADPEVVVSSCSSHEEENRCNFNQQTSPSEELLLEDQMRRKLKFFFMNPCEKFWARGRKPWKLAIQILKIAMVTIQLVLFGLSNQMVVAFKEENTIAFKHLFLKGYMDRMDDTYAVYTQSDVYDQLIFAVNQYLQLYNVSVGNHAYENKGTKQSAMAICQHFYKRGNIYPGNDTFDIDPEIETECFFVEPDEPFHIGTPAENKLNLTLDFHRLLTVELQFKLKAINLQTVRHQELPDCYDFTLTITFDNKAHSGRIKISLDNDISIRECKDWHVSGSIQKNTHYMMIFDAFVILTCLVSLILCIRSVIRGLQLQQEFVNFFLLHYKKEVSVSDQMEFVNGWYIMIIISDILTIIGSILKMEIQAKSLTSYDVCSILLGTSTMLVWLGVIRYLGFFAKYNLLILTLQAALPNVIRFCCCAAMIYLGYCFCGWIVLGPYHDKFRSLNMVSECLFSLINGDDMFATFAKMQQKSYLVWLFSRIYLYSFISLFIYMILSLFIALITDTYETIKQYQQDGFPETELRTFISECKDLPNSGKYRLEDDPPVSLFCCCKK

Row | EC50 [nM] | SMILES
1 | 1090 | O=S(=O)(Nc1ccccc1N1CCOCC1)c1ccc(Cl)s1
2 | 450 | O=S(=O)(NC1CCCCC1N1CCOCC1)c1ccc(Cl)cc1 (configuration not stated)
